Patent publication US6528481B1, “NG2/HM proteoglycan-binding peptides that home to angiogenic vasculature and related methods” (The Burnam Institute, priority 1999, dated 2003)
Where no end group is shown, it is not given here.

What was measured:
[1] = biological target: NG2 (Rattus norvegicus, UniProt Q00657); assay: Binding of peptide to NG2 (no method given)
[2] = tested on: recombinant fragment of rat NG2 (NG2ECΔ3); assay: Biopanning of linear decapeptide phage library on NG2-coated wells; assay type: binding; conditions: for selection/enrichment of NG2-binding sequences in in vitro panning: five successive rounds on NG2-coated wells
Chain of recombinant fragment of rat NG2 (NG2ECΔ3) (Q00657 30-1450 limits assumed, stated change not applied): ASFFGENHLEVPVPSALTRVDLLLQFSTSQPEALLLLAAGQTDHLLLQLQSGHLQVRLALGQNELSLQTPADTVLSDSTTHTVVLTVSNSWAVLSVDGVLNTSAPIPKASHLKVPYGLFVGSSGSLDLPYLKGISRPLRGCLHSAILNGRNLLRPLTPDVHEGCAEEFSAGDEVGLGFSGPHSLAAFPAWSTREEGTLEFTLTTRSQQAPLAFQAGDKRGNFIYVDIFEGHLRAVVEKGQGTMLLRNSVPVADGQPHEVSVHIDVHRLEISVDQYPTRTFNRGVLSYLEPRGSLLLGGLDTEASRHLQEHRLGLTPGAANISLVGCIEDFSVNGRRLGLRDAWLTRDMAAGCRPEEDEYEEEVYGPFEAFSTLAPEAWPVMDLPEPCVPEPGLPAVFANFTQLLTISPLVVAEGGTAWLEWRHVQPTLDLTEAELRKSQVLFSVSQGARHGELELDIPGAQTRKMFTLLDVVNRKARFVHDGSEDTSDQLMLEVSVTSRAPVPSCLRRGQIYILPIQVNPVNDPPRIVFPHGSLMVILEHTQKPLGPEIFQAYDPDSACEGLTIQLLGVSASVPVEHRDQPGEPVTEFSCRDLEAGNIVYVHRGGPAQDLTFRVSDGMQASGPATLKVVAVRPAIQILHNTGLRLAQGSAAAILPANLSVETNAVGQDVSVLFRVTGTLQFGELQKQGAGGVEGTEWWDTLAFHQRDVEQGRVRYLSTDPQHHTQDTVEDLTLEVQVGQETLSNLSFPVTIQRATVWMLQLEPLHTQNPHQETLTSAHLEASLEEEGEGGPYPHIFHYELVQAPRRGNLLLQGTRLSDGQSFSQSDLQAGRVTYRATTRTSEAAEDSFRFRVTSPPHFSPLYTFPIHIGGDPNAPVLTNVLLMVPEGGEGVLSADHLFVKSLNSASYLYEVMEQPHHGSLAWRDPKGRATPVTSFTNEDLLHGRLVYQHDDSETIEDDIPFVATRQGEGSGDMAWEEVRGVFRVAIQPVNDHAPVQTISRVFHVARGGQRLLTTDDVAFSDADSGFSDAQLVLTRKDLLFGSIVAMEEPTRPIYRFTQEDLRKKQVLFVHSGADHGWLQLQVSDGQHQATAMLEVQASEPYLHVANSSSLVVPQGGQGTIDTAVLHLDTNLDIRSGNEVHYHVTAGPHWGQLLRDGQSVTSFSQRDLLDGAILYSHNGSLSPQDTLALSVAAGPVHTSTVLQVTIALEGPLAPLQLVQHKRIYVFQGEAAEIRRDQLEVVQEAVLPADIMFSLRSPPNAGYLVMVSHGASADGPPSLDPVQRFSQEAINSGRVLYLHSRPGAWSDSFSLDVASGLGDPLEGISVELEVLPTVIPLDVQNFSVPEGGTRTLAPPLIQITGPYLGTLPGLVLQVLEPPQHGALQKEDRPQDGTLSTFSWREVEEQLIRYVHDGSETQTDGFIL
From the text: To identify peptide motifs capable of interacting with NG2, recombinant NG2 fragments consisting of the N-terminal two-thirds of the extracellular domain of NG2 proteoglycan were generated. Briefly, a recombinant fragment of rat NG2 consisting of the N-terminal two-thirds of the extracellular domain (NG2ECΔ3) was purified from transfected human embryonic kidney 293 cells as described (Tillet et al., J. Biol. Chem. 272:10769-10776 (1997)). Recombinant NG2 diluted in phosphate buffered saline (PBS) (2 μg NG2/well) was coated onto microtiter wells overnight at 4° C. Wells were blocked with 2% bovine serum albumin (BSA) in PBS for 1 hr at room temperature. For biopanning, phage (1×10^11 TU) from a linear decapeptide phage library diluted in 2% BSA were added to NG2-coated wells and incubated for 2 hr at room temperature. Wells were washed with PBS containing 0.1% TWEEN-20 to remove unbound phage. Bound phage were recovered by direct infection of wells with exponentially growing K91kan bacteria, followed by phage amplification overnight at 37° C. Amplified phage were then subjected to four subsequent rounds of selection on NG2-coated wells. Phage binding was quantified by counting colonies from aliquots of phage-infected bacteria removed from NG2-coated wells. Phage were sequenced from randomly selected clones as described previously (Rajotte et al., J. Clin. Invest. […]:430-437 (1998)).
To identify peptide motifs capable of interacting with NG2, the recombinant NG2 fragments were used to select phage clones from a random decapeptide phage display library. Bound phage were isolated and used for successive rounds of panning on the NG2 proteoglycan. Five successive rounds of biopanning were performed. Random clones were sequenced from rounds II to V. Sequence analysis from the final three rounds of panning are shown in Table 1. In parentheses is the number of clones displaying the same sequence. The sequences shown in column III of Table 1 are referenced as SEQ ID NOS:1-15.

[3] = tested on: NG2Δ3; assay: Inhibition of phage binding to NG2Δ3-coated wells by GST-peptide fusion proteins; design: species or system rat; conditions: increasing concentrations of GST protein; for effect on binding of TAASGVRSMH-phage to NG2 coated wells: FIG. 3A; for effect on binding of LTLRWVGLMS-phage to NG2: FIG. 3B
Chain of NG2Δ3 (Q00657 30-1450 limits assumed, stated change not applied): as above
Description: Binding of individual phage clones or an aliquot of unselected phage library control to NG2 or BSA-coated control wells was performed as described above using 1×10^9 input phage/well. For competition studies, phage incubations were performed in the presence of increasing concentrations of soluble NG2 or GST-fusion proteins.
GST-fusion proteins containing the decapeptide inserts were constructed as previously described (Rajotte et al., J. Clin. Invest. 102:430-437 (1998)). Briefly, peptide inserts were amplified by polymerase chain reaction (PCR) from the phage using specific M13 primers. PCR products were then digested with BamHI and EcoRI and inserted into the pGEX2TK vector. Fusion proteins were produced and purified according to the manufacturer's instructions (Pharmacia Biotech Inc.; Piscataway N.J.).
GST-peptide fusion proteins containing one of the two NG2-binding motifs, TAASGVRSMH (SEQ ID NO:1) or LTLRWVGLMS (SEQ ID NO:2), were tested for their ability to inhibit binding of phage to NG2Δ3-coated wells. Purified TAASGVRSMH-phage and LTLRWVGLMS-phage were incubated in NG2Δ3-coated wells in the presence of increasing concentrations of GST-TAASGVRSMH fusion protein, GST-LTLRWVGLMS fusion protein, or GST alone, and phage binding was quantified. Results shown in FIG. 3 are representative of three independent experiments and error bars show S.E.M. of the mean from triplicate platings of duplicate wells. The differences indicated by “*” are considered highly significant by student t test (p<0.01).

[4] = tested on: NG2Δ3; assay: Solid-phase assay: binding of soluble NG2Δ3 to immobilized GST-peptide fusion proteins; design: species or system rat; conditions: soluble fusion protein, increasing concentrations (50 mg in FIG. 4A)
Description: Solid-phase assays were performed as described previously (Burg et al., supra, 1996). Briefly, fusion proteins (2 μg/well) were coated onto microtiter wells overnight at 4° C. Wells were blocked with 2% BSA in PBS and incubated with soluble NG2Δ3 (1 μg/well) for 2 hr at room temperature. After washing, wells were then incubated with an anti-NG2 polyclonal antibody followed by washing and incubation with an ^125I-labeled goat anti-rabbit IgG. After final washing, bound radioactivity was determined using a gamma counter. For competition studies, soluble NG2Δ3 was preincubated 15 min with increasing concentrations of soluble GST-fusion proteins prior to incubation on wells coated with GST-fusion protein.
The ability of soluble NG2 to bind to GST-TAASGVRSMH and GST-LTLRWVGLMS was tested by using a solid phase assay. Purified NG2Δ3 was incubated in wells coated with GST-TAASGVRSMH or GST-LTLRWVGLMS in the absence of inhibitor, or after preincubation with 50 mg of soluble GST-TAASGVRSMH, GST-LTLRWVGLMS or GST alone. Binding of NG2Δ3 was determined, and the results shown in FIG. 4 are representative of three independent experiments. Error bars show S.E.M. of the mean from triplicate wells. The differences indicated by “*” are considered significant by student t test (p<0.05). The differences indicated by “**” are considered highly significant by student t test (p<0.01).

Chain of NG2 (Q00657 30-2326): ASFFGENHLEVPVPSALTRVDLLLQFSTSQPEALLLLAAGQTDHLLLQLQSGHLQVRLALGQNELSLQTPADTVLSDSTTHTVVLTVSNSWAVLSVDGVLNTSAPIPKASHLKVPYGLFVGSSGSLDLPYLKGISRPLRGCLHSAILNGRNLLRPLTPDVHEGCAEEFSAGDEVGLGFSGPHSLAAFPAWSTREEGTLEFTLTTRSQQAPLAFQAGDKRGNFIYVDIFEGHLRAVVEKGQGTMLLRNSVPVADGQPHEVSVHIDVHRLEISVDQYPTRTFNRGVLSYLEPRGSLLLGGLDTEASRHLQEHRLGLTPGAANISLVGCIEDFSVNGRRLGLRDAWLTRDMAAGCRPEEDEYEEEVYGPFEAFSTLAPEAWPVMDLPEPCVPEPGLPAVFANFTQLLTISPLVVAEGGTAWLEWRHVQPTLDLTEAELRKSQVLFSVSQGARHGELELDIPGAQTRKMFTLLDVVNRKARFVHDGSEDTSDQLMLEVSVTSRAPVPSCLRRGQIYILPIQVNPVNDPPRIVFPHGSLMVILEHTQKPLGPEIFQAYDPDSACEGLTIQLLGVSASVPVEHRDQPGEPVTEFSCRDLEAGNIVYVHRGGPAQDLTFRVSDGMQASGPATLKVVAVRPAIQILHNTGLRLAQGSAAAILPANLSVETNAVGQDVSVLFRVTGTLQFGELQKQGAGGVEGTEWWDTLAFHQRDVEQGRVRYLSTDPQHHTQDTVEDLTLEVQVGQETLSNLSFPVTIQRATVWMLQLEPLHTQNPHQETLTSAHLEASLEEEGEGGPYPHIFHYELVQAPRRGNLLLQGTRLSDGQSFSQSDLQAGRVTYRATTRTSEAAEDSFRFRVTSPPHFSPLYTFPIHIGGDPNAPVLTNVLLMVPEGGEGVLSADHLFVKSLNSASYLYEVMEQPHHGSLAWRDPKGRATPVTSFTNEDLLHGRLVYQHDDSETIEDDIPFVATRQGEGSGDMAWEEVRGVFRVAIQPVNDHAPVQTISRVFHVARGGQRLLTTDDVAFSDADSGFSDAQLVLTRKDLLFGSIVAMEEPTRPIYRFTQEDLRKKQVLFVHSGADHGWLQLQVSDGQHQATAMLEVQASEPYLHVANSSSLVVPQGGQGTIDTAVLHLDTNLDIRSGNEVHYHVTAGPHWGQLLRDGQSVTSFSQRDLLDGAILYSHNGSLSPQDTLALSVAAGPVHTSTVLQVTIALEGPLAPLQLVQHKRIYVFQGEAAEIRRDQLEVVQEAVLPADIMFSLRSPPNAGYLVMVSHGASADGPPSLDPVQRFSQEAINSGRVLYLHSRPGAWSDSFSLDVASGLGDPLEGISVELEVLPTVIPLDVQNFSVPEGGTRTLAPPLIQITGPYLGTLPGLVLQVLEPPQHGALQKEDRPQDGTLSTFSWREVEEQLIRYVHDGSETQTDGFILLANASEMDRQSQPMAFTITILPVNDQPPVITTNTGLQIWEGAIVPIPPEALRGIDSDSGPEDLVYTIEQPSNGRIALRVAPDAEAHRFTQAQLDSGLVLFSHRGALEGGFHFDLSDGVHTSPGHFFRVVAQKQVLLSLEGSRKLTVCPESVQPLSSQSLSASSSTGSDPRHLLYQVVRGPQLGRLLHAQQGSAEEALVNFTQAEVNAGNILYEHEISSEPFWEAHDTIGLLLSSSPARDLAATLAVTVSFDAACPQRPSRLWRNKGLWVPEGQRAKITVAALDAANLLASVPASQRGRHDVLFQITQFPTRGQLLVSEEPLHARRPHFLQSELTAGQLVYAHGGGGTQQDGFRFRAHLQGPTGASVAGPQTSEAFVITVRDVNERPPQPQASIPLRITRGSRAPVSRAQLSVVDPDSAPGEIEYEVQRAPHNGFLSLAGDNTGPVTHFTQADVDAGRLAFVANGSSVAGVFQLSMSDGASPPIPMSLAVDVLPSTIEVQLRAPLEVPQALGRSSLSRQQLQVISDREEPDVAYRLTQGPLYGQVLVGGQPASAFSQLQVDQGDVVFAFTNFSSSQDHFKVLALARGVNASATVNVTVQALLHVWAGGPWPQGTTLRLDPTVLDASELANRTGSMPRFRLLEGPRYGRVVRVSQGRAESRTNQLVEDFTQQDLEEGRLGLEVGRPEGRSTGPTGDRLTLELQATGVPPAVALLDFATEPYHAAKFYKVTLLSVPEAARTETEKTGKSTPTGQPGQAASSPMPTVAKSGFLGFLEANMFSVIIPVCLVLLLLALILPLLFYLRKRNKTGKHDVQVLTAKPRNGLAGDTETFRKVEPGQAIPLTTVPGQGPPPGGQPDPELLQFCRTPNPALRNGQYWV

In the case of CLSGSLSC, the “binding to NG2” value [1] is reported as “found to bind to NG2”.

With GGGTRAGMKY the “number of clones displaying the same sequence” value (“number” for short) ([2]; panning round III) was “GGGTRAGMKY (SEQ ID NO: 3) (2)”.

In the case of “control GST protein: control GST protein containing no peptide insert [reference compound]”, the “effect on binding of TAASGVRSMH-phage to NG2 coated wells” value (“effect on binding of TAASGVRSMH-phage” for short) [3] is reported as “little effect on binding” and the “effect on binding of LTLRWVGLMS-phage to NG2” value [3] is reported as “no significant effect on the binding”.

“GST-TAASGVRSMH: GST-fusion protein containing the decapeptide insert TAASGVRSMH ({GST}-TAASGVRSMH)” was tested, and the “effect of preincubation on binding of NG2 to wells coated with GST-TAASGVRSMH” value [4] was “dose-dependent decrease in binding”, the “effect on binding of TAASGVRSMH-phage” value [3] was “dose-dependent decrease in binding” and the “effect on binding of LTLRWVGLMS-phage to NG2” value [3] was “inhibited the binding”.

With “GST-LTLRWVGLMS: GST-fusion protein containing the decapeptide insert LTLRWVGLMS ({GST}-LTLRWVGLMS)” the “effect of preincubation on binding of NG2 to wells coated with GST-TAASGVRSMH” value [4] was “inhibited binding”, the “effect on binding of TAASGVRSMH-phage” value [3] was “inhibited” and the “effect on binding of LTLRWVGLMS-phage to NG2” value [3] was “inhibited the binding”.

With TAASGVRSMH the “selection/enrichment of NG2-binding sequences in in vitro panning” value [2] was “specifically enriched in later rounds of in vitro panning”, the “number” value ([2]; panning round IV) was “TAASGVRSMH (16)” and the “number” value ([2]; panning round V) was “TAASGVRSMH (SEQ ID NO: 1) (8)”.

With LTLRWVGLMS the “selection/enrichment of NG2-binding sequences in in vitro panning” value [2] was “specifically enriched in later rounds of in vitro panning”, the “number” value ([2]; panning round IV) was “LTLRWVGLMS (10)” and the “number” value ([2]; panning round V) was “LTLRWVGLMS (SEQ ID NO: 2) (7)”.
